# Data: patent US20080119451A1, “Novel Benzamide Derivatives” (ASTRAZENECA AB, priority 2005, published 2008)
# Assays:
# HCT116 cells = test: In vitro assay of inhibition of proliferation in whole cells (Promega MTS assay); type: cell-based; conditions: Homo sapiens, HCT-116, 72 hours treatment, read-out: Test (b) IC50
# Method: (b) In Vitro Assay of Inhibition of Proliferation in Whole Cells
# Inhibition of proliferation in whole cells was assayed using the Promega cell titer 96 aqueous proliferation assay (Promega #G5421). HCT116 cells were seeded in 96 well plates at 1×10^3 cells/well, and allowed to adhere overnight. They were treated with inhibitors for 72 hours. 20 μl of the tetrazolium dye MTS was added to each well and the plates were reincubated for 3 hours. Absorbance was then measured on a 96 well plate reader at […]. The IC50 values for HDAC inhibitors were determined by performing dose response curves with individual compounds and determining the concentration of inhibitor producing fifty percent decrease in maximal signal (diluent control).
# recombinant human HDAC1 = target: T1, recombinant human HDAC1 (Homo sapiens, UniProt Q13547); test: In vitro enzyme assay of recombinant HDAC1 (Fluor de Lys deacetylase assay); type: biochemical; conditions: recombinant human HDAC1 produced in Hi5 insect cells; acetylated histone H4 peptide substrate; read-out: Test (a) IC50
# T1 construct: FLAG (C); made in house; host or cells: Hi5 insect cells
# T1 sequence (Q13547 whole entry): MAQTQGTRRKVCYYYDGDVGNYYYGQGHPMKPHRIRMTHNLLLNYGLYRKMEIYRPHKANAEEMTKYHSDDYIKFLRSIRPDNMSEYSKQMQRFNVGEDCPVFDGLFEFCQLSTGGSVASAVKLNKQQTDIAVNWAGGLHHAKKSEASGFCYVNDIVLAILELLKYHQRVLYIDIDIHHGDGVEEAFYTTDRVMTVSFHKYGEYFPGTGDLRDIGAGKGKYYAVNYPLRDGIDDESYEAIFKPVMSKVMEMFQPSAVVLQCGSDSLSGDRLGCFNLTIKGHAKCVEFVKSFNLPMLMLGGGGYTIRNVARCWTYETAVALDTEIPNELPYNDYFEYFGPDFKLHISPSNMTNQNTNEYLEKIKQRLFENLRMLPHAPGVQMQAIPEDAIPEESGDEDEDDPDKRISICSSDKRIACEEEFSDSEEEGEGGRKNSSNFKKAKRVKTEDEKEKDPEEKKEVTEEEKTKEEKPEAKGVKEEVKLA
# Method: (a) In Vitro Enzyme Assay of Recombinant HDAC1
# HDAC inhibitors were screened against recombinant human HDAC1 produced in Hi5 insect cells. The enzyme was cloned with a FLAG tag at the C-terminal of the gene and affinity purified using Anti-FLAG M2 agarose from SIGMA (A2220).
# The deacetylase assays were carried out in a 50 μl reaction. […] The reaction was stopped by addition of an equal volume (50 μl) Fluor de Lys developer (Biomol) containing Trichostatin A at 2 μM. […] IC50 values for HDAC enzyme inhibitors were determined by performing dose response curves with individual compounds and determining the concentration of inhibitor producing fifty percent decrease in the maximal signal (diluent control).
IC50 (HCT116 cells) [nM],IC50 (recombinant human HDAC1) [nM],Structure (SMILES)
2330,89,"Nc1ccccc1NC(=O)c1ccc(-c2ccccn2)cc1 [Comparator, N-(2-aminophenyl)-4-pyridin-2-ylbenzamide, reference compound]"
238,19,"Cc1cc(CN2CCN(C(C)C)CC2)cnc1-c1ccc(C(=O)Nc2ccccc2N)cc1 [Example 2, N-(2-aminophenyl)-4-{5-[(4-isopropylpiperazin-1-yl)methyl]-3-methylpyridin-2-yl}benzamide]"

Structure (SMILES),IC50 (HCT116 cells) [nM],IC50 (recombinant human HDAC1) [nM]
"Cc1cc(CN2CCC2)cnc1-c1ccc(C(=O)Nc2ccccc2N)cc1 [Example 4, N-(2-aminophenyl)-4-[5-(azetidin-1-ylmethyl)-3-methylpyridin-2-yl]benzamide]",310,21
